“Also recorded” adds a separate entry of the source.
How the values were obtained:
[1] = test system: chorioallantoic membrane (CAM); assay: Chick chorioallantoic membrane (CAM) assay; assay type: in vivo, chicken; settings: purified protein applied daily to sponge, scored over 72 h
Procedure: Chick Chorioallantoic Membrane Assay-Fertilized chicken eggs (Sunrise Farms, Catskill, N.Y.) day 1-2 post-laying were incubated in a humidified incubator at 37° C. for 72 h. Cleaned eggs were cracked and plated in a sterile 10 cm^2 tissue culture-treated dish and incubated at 37° C. for another 7 days. On developmental day 10, 1 mm^3 sterile gelatin sponge pieces (Surgifoam®; Johnson & Johnson Wound Management, Somerville, N.J.) were placed within the outer one-third of the membrane between large vessels. 40 μg/ml human bFGF and 2 μg/mL human VEGF were used as pro-angiogenic control compounds; 100 μg/mL retinoic acid (Sigma-Aldrich, St. Louis, Mo.) diluted in phosphate-buffered saline (PBS) was used as an angiostatic control. All compounds were applied in 10 μl to the CAM every 24 h for 72 h. Images were taken using a Leica MZ6 stereomicroscope every 24 h. Compounds were scored according to a modified version of Intensity Scoring as previously described (Ribatti, Nico et al. 2006). Briefly, each experimental condition was given a blinded score from 0-5 based on the change in the extent of vessel convergence and formation in proximity to the sponge from day 0 to day 3. Total score is averaged individual experimental condition scores from at least 15 replicates.
Fertilized chicken embryos were cultured ex-ova and, starting at developmental day 10, agents were applied daily to gelfoam sponges on the CAM. Images were recorded daily over 72 h and scored blindly according to a modified version Intensity Scoring as previously described (Ribatti, Nico et al. 2006). Additional details regarding methods are provided in the Methods and Materials section of Example 1.

human LARS = biological target: T1, human LARS (Homo sapiens, UniProt Q9P2J5); assay: LARS steady state ATPase activity; assay type: biochemical; settings: 1 μM human LARS
T1 construct: His6 (N); made in house; host or cells: E. coli, plasmid pPROEX hTb-LARS
Procedure: LARS steady state ATPase activity was determined using the same procedure as for TARS aminoacylation with the following modifications. […] ATP (PerkinElmer, Waltham, Mass.) was added. Reactions were incubated for 3 minutes at 37° C. and initiated with the addition of 1 μM human LARS. At various time points 5 μl aliquots were quenched in 45 μl of 500 mM sodium acetate and 0.1% sodium dodecyl sulfate. For each sample, 1 μl was spotted onto a CCM cellulose PEI F plates (EMD) and resolved via thin-layer chromatography in 0.75 M potassium phosphate buffer mobile phase.

T1 sequence (Q9P2J5 whole entry): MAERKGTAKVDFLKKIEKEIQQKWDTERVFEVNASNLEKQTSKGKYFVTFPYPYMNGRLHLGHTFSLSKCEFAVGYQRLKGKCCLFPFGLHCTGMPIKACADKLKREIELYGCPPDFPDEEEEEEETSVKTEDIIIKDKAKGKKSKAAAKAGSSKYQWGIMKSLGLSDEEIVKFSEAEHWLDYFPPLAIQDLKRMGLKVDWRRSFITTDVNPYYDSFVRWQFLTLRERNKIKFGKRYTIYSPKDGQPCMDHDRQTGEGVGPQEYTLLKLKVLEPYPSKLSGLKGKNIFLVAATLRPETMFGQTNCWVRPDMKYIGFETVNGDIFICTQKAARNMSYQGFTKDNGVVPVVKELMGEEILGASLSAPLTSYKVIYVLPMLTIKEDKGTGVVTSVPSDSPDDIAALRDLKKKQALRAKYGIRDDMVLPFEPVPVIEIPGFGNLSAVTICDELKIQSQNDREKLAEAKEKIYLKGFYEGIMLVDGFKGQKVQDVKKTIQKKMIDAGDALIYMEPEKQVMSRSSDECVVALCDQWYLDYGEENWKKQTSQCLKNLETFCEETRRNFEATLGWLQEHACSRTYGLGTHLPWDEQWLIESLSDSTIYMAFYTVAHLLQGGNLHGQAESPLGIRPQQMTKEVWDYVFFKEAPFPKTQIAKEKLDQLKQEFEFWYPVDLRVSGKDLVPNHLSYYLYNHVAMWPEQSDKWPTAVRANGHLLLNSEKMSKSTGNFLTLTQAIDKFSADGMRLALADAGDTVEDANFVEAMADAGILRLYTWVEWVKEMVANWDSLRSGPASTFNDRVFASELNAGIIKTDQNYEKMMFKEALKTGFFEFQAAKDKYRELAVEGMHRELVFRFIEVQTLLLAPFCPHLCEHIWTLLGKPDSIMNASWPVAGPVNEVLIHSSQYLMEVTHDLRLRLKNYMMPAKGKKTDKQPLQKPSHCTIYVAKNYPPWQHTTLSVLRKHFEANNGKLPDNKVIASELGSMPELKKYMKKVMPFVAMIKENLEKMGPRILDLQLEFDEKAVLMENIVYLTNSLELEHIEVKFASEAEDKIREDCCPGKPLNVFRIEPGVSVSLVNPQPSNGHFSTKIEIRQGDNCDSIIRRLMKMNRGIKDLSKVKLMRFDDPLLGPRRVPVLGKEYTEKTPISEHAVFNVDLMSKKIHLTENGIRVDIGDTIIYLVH

LARS: N-terminal His6-tagged human leucyl tRNA synthetase
vessel formation / vascularization on the CAM after applied protein [1]: no observable effect on vascularization; also recorded: has no effect on angiogenesis | enzyme activity as conversion of 32P-ATP to AMP (human LARS): exhibits enzyme activity

Source: US11225653B2, “Methods and compounds for reducing threonyl-tRNA synthetase activity” (University of Vermont and State Agricultural College, priority 2012, dated 2022)
